Measurements from ChEMBL document CHEMBL1149086, “Antimalarial and antitumor evaluation of novel C-10 non-acetal dimers of 10beta-(2-hydroxyethyl)deoxoartemisinin” (J Med Chem, 2004).

Legend:
Plasmodium falciparum [1] = assay: In vitro antimalarial activity against Plasmodium falciparum K1 by [3H]hypoxanthine uptake; format: functional, organism-based
Plasmodium falciparum [2] = assay: In vitro antimalarial activity against Plasmodium falciparum HB3 by [3H]hypoxanthine uptake; format: functional, organism-based

COP(=O)(OC)OCC[C@H]1O[C@@H]2O[C@]3(C)CC[C@H]4[C@H](C)CC[C@@H]([C@H]1C)[C@@]24OO3
IC50 (Plasmodium falciparum [1]): 2.2 nM

C[C@H]1[C@@H](CCOC(=O)c2ccc(C(=O)OCC[C@H]3O[C@@H]4O[C@]5(C)CC[C@H]6[C@H](C)CC[C@@H]([C@H]3C)[C@@]46OO5)cc2)O[C@@H]2O[C@]3(C)CC[C@H]4[C@H](C)CC[C@@H]1[C@@]24OO3
IC50 (Plasmodium falciparum [1]): 4.6 nM

C[C@H]1[C@@H](CCOCc2ccc(COCC[C@H]3O[C@@H]4O[C@]5(C)CC[C@H]6[C@H](C)CC[C@@H]([C@H]3C)[C@@]46OO5)cc2)O[C@@H]2O[C@]3(C)CC[C@H]4[C@H](C)CC[C@@H]1[C@@]24OO3
IC50 (Plasmodium falciparum [1]): 2.4 nM

C[C@H]1[C@@H](CCOC(=O)c2cccc(C(=O)OCC[C@H]3O[C@@H]4O[C@]5(C)CC[C@H]6[C@H](C)CC[C@@H]([C@H]3C)[C@@]46OO5)c2)O[C@@H]2O[C@]3(C)CC[C@H]4[C@H](C)CC[C@@H]1[C@@]24OO3
IC50 (Plasmodium falciparum [1]): 42.2 nM

C[C@H]1[C@@H](CCOP(=O)(Oc2ccccc2)Oc2ccccc2)O[C@@H]2O[C@]3(C)CC[C@H]4[C@H](C)CC[C@@H]1[C@@]24OO3
IC50 (Plasmodium falciparum [1]): 3.1 nM

C[C@H]1[C@@H](CCOC(=O)c2ccccc2C(=O)OCC[C@H]2O[C@@H]3O[C@]4(C)CC[C@H]5[C@H](C)CC[C@@H]([C@H]2C)[C@@]35OO4)O[C@@H]2O[C@]3(C)CC[C@H]4[C@H](C)CC[C@@H]1[C@@]24OO3
IC50 (Plasmodium falciparum [2]): 1.6 nM
IC50 (Plasmodium falciparum [1]): 2.6 nM

C[C@H]1[C@@H](CCOCc2ccccc2COCC[C@H]2O[C@@H]3O[C@]4(C)CC[C@H]5[C@H](C)CC[C@@H]([C@H]2C)[C@@]35OO4)O[C@@H]2O[C@]3(C)CC[C@H]4[C@H](C)CC[C@@H]1[C@@]24OO3
IC50 (Plasmodium falciparum [2]): 1.3 nM
IC50 (Plasmodium falciparum [1]): 2.9 nM
